Experimental data from patent US9845292B2 (Max-Planck-Gesellschaft zur Förderung der Wissenschaften …, priority 2013, dated 2017).
Where two headings read alike, the source gives them in different places.

Columns and labels:
FKBP52 = biological target: T1, FKBP52 (Homo sapiens, UniProt Q02790); experiment: Fluorescence polarization binding assay, FK1-domain of FKBP52WT with tracer F2 (selectivity FKBP51 vs. FKBP52); settings: selectivity factor over FKBP52
T1 construct: Purified FK1-domains of FKBP51WT (4.5 nM) with F4 (3 nM), FKBP52WT (400 nM) with F2 (20 nM); implied by Ni-NTA purification) (N); made in house; host or cells: E. coli BL21(DE3)pLysS
T1 sequence (Q02790 50-138 limits assumed): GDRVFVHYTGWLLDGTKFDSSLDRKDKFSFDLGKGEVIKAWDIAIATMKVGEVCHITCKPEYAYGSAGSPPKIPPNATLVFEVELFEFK
Description: (§1) The target protein was also diluted in this assay buffer at double the highest concentration required for the final sample. This protein stock was used for a 1:1 serial dilution.
(§2) The inventive compound was dissolved in DMSO to reach a 100-times concentrated stock solution. This was used for a 1:1 serial dilution in DMSO.
(§3) For FKBP12, −51, and −52 the binding assays were performed in duplicates in the plate format.
(§4) The competition curves were analyzed by using SigmaPlot9. Data were fitted to a four parameter logistic curve to deduce the IC50 values. […] A=(Amax−Amin)/[L]t×(([L]t×((2×((Klig+Kcomp+[L]t+[I]t−[R]t)^2−3×(Kcomp×([L]t−[R]t)+Klig×([I]t−[R]t)+Klig×Kcomp))^0.5×COS(ARCCOS((−2×(Klig+Kcomp+[L]t+[I]t−[R]t)^3+9×(Klig+Kcomp+[L]t+[I]t−[R]t)×(Kcomp×([L]t−[R]t)+Klig×([I]t−[R]t)+Klig×Kcomp)−27×(−1×Klig×Kcomp×[R]t))/(2×((((Klig+Kcomp+[L]t+[I]t−[R]t)^2−3×(Kcomp×([L]t−[R]t)+Klig×([I]t−[R]t)+Klig×Kcomp))^3)^0.5)))/3))−(Klig+Kcomp+[L]t+[I]t−[R]t)))/((3×Klig)+((2×((Klig+Kcomp+[L]t+[I]t−[R]t)^2−3×(Kcomp×([L]t−[R]t)+Klig×([I]t−[R]t)+Klig×Kcomp))^0.5×COS(ARCCOS((−2×(Klig+Kcomp+[L]t+[I]t−[R]t)^3+9×(Klig+Kcomp+[L]t+[I]t−[R]t)×(Kcomp×([L]t−[R]t)+Klig×([I]t−[R]t)+Klig×Kcomp)−27×(−1×Klig×Kcomp×[R]t))/(2×((((Klig+Kcomp+[L]t+[I]t−[R]t)^2−3×(Kcomp×([L]t−[R]t)+Klig×([I]t−[R]t)+Klig×Kcomp))^3)^0.5)))/3))−(Klig+Kcomp+[L]t+[I]t−[R]t))))+Amin
(§5) In this equation Klig and Kcomp stand for the Kd values of the used tracer or competing inhibitor, [I]t is referring to the total concentration of the titrated inhibitor.
The Selectivity of the Compounds was Classified by Ki(FKBP51)/Ki(FKBP52)
(§6) Inhibition constants were measured in a fluorescence polarization binding assay by titrating the compounds.

FKBP51 = biological target: T2, FKBP51 (Homo sapiens, UniProt Q13451); experiment: Fluorescence polarization binding assay, FK1-domain of FKBP51WT with tracer F4; parameters: Purified FK1-domains of FKBP51WT (4.5 nM) with F4 (3 nM), FKBP52WT (400 nM) with F2 (20 nM); made in house; host or cells: E. coli BL21(DE3)pLysS; settings: read-out: Affinity(Ki) for FKBP51
T2 sequence (Q13451 42-130 limits assumed): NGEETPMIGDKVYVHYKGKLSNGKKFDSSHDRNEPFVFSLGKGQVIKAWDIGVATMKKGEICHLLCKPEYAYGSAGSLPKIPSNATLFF
Description: as §1, §2, §3, §4, §5, §6

[1] = FKBP52WT (400 nM) with F2 (20 nM), A series
[2] = FK1-domain of FKBP51WT (4.5 nM) with F4 (3 nM), A series

COc1cc([C@@H](C(=O)N2CCCC[C@H]2C(=O)OC2C=CCCC2)C2CCCCC2)cc(OC)c1OC (mixture of isomers) [Compound C15, (2S)-cyclohex-2-en-1-yl-1-((S)-2-cyclohexyl-2-(3,4,5-trimethoxyphenyl)acetyl) piperidine-2-carboxylate]
Ki(FKBP51)/Ki(FKBP52) (FKBP52; compounds B01-C25): ++ (>50 ++) | Ki (FKBP51; compounds B01-C25): 1000 to 10000 nM

COc1ccc(CCC(OC(=O)C2CCCCN2C(=O)[C@H](c2cc(OC)c(OC)c(OC)c2)[C@@H]2C=CCCC2)c2cccc(OCCN3CCOCC3)c2)cc1OC (stereo in doubt) [Compound A12, (S)-(R)-3-(3,4-Dimethoxyphenyl)-1-(3-(2-morpholinoethoxy)phenyl)propyl-1-((S)-2-((S)-cyclohex-2-en-1-yl)-2-(3,4,5-trimethoxyphenyl)acetyl)piperidine-2-carboxylate]
Ki(FKBP51)/Ki(FKBP52) (FKBP52; [1]): +++ (>500 +++) | Ki (FKBP51; [2]): < 100 nM

COc1ccc(OCCOC(=O)[C@@H]2CCCCN2C(=O)[C@H](c2cc(OC)c(OC)c(OC)c2)C2C=CCCC2)cc1OC (stereo in doubt) [Compound A14, (S)-2-(3,4-Dimethoxyphenoxy)ethyl-1-((S)-2-((R)-cyclohex-2-en-1-yl)-2-(3,4,5-trimethoxyphenyl)acetyl)piperidine-2-carboxylate]
Ki(FKBP51)/Ki(FKBP52) (FKBP52; [1]): ++ (>50 ++) | Ki (FKBP51; [2]): 100 to 1000 nM

COc1ccc(CCC(OC(=O)C2CCCN2C(=O)[C@H](c2cc(OC)c(OC)c(OC)c2)C2C=CCCC2)c2cccc(OCCN3CCOCC3)c2)cc1OC (stereo in doubt) [Compound A15, (S)-(R)-3-(3,4-dimethoxyphenyl)-1-(3-(2-morpholinoethoxy)phenyl)propyl-1-((S)-2-((R)-cyclohex-2-en-1-yl)-2-(3,4,5-trimethoxyphenyl)acetyl)pyrrolidine-2-carboxylate]
Ki(FKBP51)/Ki(FKBP52) (FKBP52; [1]): +++ (>500 +++) | Ki (FKBP51; [2]): < 100 nM

CCC(C)OC(=O)C1CCCCN1C(=O)[C@H](c1cc(OC)c(OC)c(OC)c1)C1CCCCC1 (stereo in doubt) [Compound C08, (S)-(R)-sec-butyl-1-((S)-2-cyclohexyl-2-(3,4,5-trimethoxyphenyl)acetyl) piperidine-2-carboxylate]
Ki(FKBP51)/Ki(FKBP52) (FKBP52; compounds B01-C25): ++ (>50 ++) | Ki (FKBP51; compounds B01-C25): 1000 to 10000 nM

C=CC[C@H](C(=O)N1CCCC1C(=O)OC(CCc1ccc(OC)c(OC)c1)c1cccc(OCCN2CCOCC2)c1)c1cc(OC)c(OC)c(OC)c1 (stereo in doubt) [Reference A33, (S)-(R)-3-(3,4-Dimethoxyphenyl)-1-(3-(2-morpholinoethoxy)phenyl)propyl-1-((S)-2-(3,4,5-trimethoxyphenyl)pent-4-enoyl)pyrrolidine-2-carboxylate]
Ki(FKBP51)/Ki(FKBP52) (FKBP52; [1]): not selective (<5 not selective)

C=CC[C@H](C(=O)N1CCCC[C@H]1C(=O)OC(CCCc1cccnc1)CCCc1cccnc1)c1cc(OC)c(OC)c(OC)c1 [Compound A04, (S)-1,7-di(pyridin-3-yl)heptan-4-yl 1-((S)-2-(3,4,5-trimethoxyphenyl)pent-4-enoyl)piperidine-2-carboxylate]
Ki(FKBP51)/Ki(FKBP52) (FKBP52; [1]): + (>5 +) | Ki (FKBP51; [2]): 10000 to 50000 nM

C=CC[C@H](C(=O)N1CCCC[C@H]1C(=O)N[C@H](CCc1ccc(OC)c(OC)c1)c1cccc(OCCN2CCOCC2)c1)c1cc(OC)c(OC)c(OC)c1 [Compound A05, (S)-N-((R)-3-(3,4-dimethoxyphenyl)-1-(3-(2-morpholinoethoxy)phenyl)propyl)-1-((S)-2-(3,4,5-trimethoxyphenyl)pent-4-enoyl)piperidine-2-carboxamide]
Ki(FKBP51)/Ki(FKBP52) (FKBP52; [1]): + (>5 +) | Ki (FKBP51; [2]): 1000 to 10000 nM

C=CC[C@H](C(=O)N1CC=CC[C@H]1C(=O)O[C@H](CCc1ccc(OC)c(OC)c1)c1cccc(OCCN2CCOCC2)c1)c1cc(OC)c(OC)c(OC)c1 [Compound A06]
Ki(FKBP51)/Ki(FKBP52) (FKBP52; [1]): + (>5 +) | Ki (FKBP51; [2]): 10000 to 50000 nM

COc1ccc(CC[C@@H](OC(=O)[C@@H]2CCCCN2C(=O)[C@@H](Cc2ccccc2)c2cc(OC)c(OC)c(OC)c2)c2cccc(OCC(=O)O)c2)cc1OC [Compound A10, 2-(3-((R)-3-(3,4-dimethoxyphenyl)-1-(((S)-1-((S)-3-phenyl-2-(3,4,5-trimethoxyphenyl)propanoyl)piperidine-2-carbonyl)oxy)propyl)phenoxy)acetic acid]
Ki(FKBP51)/Ki(FKBP52) (FKBP52; [1]): + (>5 +) | Ki (FKBP51; [2]): 10000 to 50000 nM

COc1ccc(CC[C@@H](OC(=O)[C@@H]2CCCCN2C(=O)[C@H](c2cc(OC)c(OC)c(OC)c2)[C@@H]2C=CCCC2)c2cccc(OCC(=O)O)c2)cc1OC [Compound A11, 2-(3-((R)-1-(((S)-1-((S)-2-((S)-Cyclohex-2-en-1-yl)-2-(3,4,5-trimethoxyphenyl)acetyl)piperidine-2-carbonyl)oxy)-3-(3,4-dimethoxyphenyl)propyl)phenoxy) acetic acid]
Ki(FKBP51)/Ki(FKBP52) (FKBP52; [1]): +++ (>500 +++) | Ki (FKBP51; [2]): < 100 nM

COc1cc([C@@H](C(=O)N2CCCC[C@H]2C(=O)OC(CCCc2cccnc2)CCCc2cccnc2)[C@@H]2C=CCCC2)cc(OC)c1OC [Compound A13, (S)-1,7-Di(pyridin-3-yl)heptan-4-yl-1-((S)-2-((S)-cyclohex-2-en-1-yl)-2-(3,4,5-trimethoxyphenyl)acetyl)piperidine-2-carboxylate]
Ki(FKBP51)/Ki(FKBP52) (FKBP52; [1]): +++ (>500 +++) | Ki (FKBP51; [2]): < 100 nM

COc1ccc(CCC(NC(=O)[C@@H]2CCCCN2C(=O)[C@H](c2cc(OC)c(OC)c(OC)c2)[C@@H]2C=CCCC2)c2cccc(OCC(=O)O)c2)cc1OC (stereo partly drawn) [Compound A16, 2-(3-((R)-1-((S)-1-((S)-2-((R)-Cyclohex-2-en-1-yl)-2-(3,4,5-trimethoxyphenyl)acetyl)piper-idine-2-carboxamido)-3-(3,4-dimethoxyphenyl)propyl)phenoxy) acetic acid]
Ki(FKBP51)/Ki(FKBP52) (FKBP52; [1]): ++ (>50 ++) | Ki (FKBP51; [2]): 100 to 1000 nM

COc1cc([C@@H](C(=O)N2CCCC[C@H]2C(=O)OC(CCCc2cccnc2)CCCc2cccnc2)C2CCCCC2)cc(OC)c1OC [Compound A19, (2S)-1,7-di(pyridin-3-yl)heptan-4-yl 1-(2-cyclohexyl-2-(3,4,5-trimethoxyphenyl)acetyl)piperidine-2-carboxylate]
Ki(FKBP51)/Ki(FKBP52) (FKBP52; [1]): +++ (>500 +++) | Ki (FKBP51; [2]): < 100 nM

COc1ccc(OCCOC(=O)[C@@H]2CCCCN2C(=O)[C@H](c2cc(OC)c(OC)c(OC)c2)C2CCCCC2)cc1OC [Compound A20, (S)-2-(3,4-dimethoxyphenoxy)ethyl-1-((S)-2-cyclohexyl-2-(3,4,5-trimethoxyphenyl)acetyl)piperidine-2-carboxylate]
Ki(FKBP51)/Ki(FKBP52) (FKBP52; [1]): ++ (>50 ++) | Ki (FKBP51; [2]): 100 to 1000 nM

COc1ccc(CC[C@@H](NC(=O)[C@@H]2CCCCN2C(=O)[C@H](c2cc(OC)c(OC)c(OC)c2)C2CCCCC2)c2cccc(OCC(=O)O)c2)cc1OC [Compound A22, 2-(3-((R)-1-((S)-1-((S)-2-cyclohexyl-2-(3,4,5-trimethoxyphenyl)acetyl)piperidine-2-carboxamido)-3-(3,4-dimethoxyphenyl)propyl)phenoxy)acetic acid]
Ki(FKBP51)/Ki(FKBP52) (FKBP52; [1]): ++ (>50 ++) | Ki (FKBP51; [2]): 100 to 1000 nM

C=CC[C@H](C(=O)N1CCSC[C@H]1C(=O)O[C@H](CCc1ccc(OC)c(OC)c1)c1cccc(OCCN2CCOCC2)c1)c1cc(OC)c(OC)c(OC)c1 [Reference A34, (R)-(R)-3-(3,4-Dimethoxyphenyl)-1-(3-(2-morpholinoethoxy)phenyl)propyl-4-((S)-2-(3,4,5-trimethoxyphenyl)pent-4-enoyl)thiomorpholine-3-carboxylate]
Ki(FKBP51)/Ki(FKBP52) (FKBP52; [1]): not selective (<5 not selective)
